Data as given in the supplement of paper PMC10307832.

How the values were obtained:
Assay in all cases: relative viability (nuclei count vs DMSO), 5 days (fraction); higher = more cells survive
[1] = compound: NC1(c2ccc(-c3nc4ccn5c(=O)[nH]nc5c4cc3-c3ccccc3)cc2)CCC1 [MK-2206]
Summary of the method: (§1)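 In 1536-well plates, lung cancer cell lines rested overnight at 37 °C before five library-drug doses (not always all listed), √10 apart, were pinned onto vehicle-anchored plates. Nuclei were counted with MetaXpress from 4× Hoechst images taken after 5 days without medium change. Viability compares treated-well with vehicle-well nuclei as a median over plates, and plates needed control CV below 25% plus at least one doubling to pass.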

[2] = compound: CS(=O)(=O)N1CCN(Cc2cc3nc(-c4cccc5[nH]ncc45)nc(N4CCOCC4)c3s2)CC1 [Pictilisib]
Summary of the method: as §1

[3] = compound: CS(=O)(=O)N1CCN(Cc2cc3nc(-c4cccc5[nH]ncc45)nc(N4CCOCC4)c3s2)CC1 [Pictilisib] + COc1cccc2cc(-c3nc([C@H]4CC[C@H](C(=O)O)CC4)n4ncnc(N)c34)[nH]c12 [OSI-027] (partner 0.5 µM)
Summary of the method: (§2)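 Five library-drug doses in √10 steps were combined with a fixed anchor-drug dose, or a single drug was given alone, by pin tool to lung cancer cell lines in 1536-well plates the day after seeding. Nuclei were stained and counted after 5 days. Relative viability is the nuclei count in treated wells over that in vehicle wells, taken as the median of duplicate plates.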

[4] = compound: CS(=O)(=O)N1CCN(Cc2cc3nc(-c4cccc5[nH]ncc45)nc(N4CCOCC4)c3s2)CC1 [Pictilisib] + CCNC(=O)c1noc(-c2cc(C(C)C)c(O)cc2O)c1-c1ccc(CN2CCOCC2)cc1 [Luminespib] (partner 0.01 µM)
Summary of the method: as §2

| Cell Line | relative viability ([1]; 0.01 µM) | relative viability ([1]; 0.03162 µM) | relative viability ([1]; 0.3162 µM) | relative viability ([1]; 1 µM) | relative viability ([2]; 0.02 µM) | relative viability ([2]; 0.06325 µM) | relative viability ([2]; 0.6325 µM) | relative viability ([2]; 1 µM, anchor plate) | relative viability ([2]; 2 µM) | relative viability ([3]; first compound 0.02 µM) | relative viability ([3]; first compound 0.06325 µM) | relative viability ([3]; first compound 0.6325 µM) | relative viability ([3]; first compound 2 µM) | relative viability ([4]; first compound 0.02 µM) | relative viability ([4]; first compound 0.06325 µM) | relative viability ([4]; first compound 0.6325 µM) | relative viability ([4]; first compound 2 µM) |
| --- | --- | --- | --- | --- | --- | --- | --- | --- | --- | --- | --- | --- | --- | --- | --- | --- | --- |
| COR-L23 | 1.01 | 1.05 | 1.03 | 0.99 | 1.14 | 1.1 | 1.03 | 0.807 | 0.763 | 0.767 | 0.809 | 0.732 | 0.372 | 0.768 | 0.808 | 0.562 | 0.442 |
| NCI-H1755 | 0.955 | 0.989 | 0.907 | 0.918 | 1.01 | 0.979 | 0.925 | 0.434 | 0.639 | 0.684 | 0.666 | 0.41 | 0.279 | 0.412 | 0.384 | 0.305 | 0.189 |
| LOU-NH91 | 0.983 | 0.999 | 1.02 | 0.875 | 1.02 | 0.987 | 0.874 | 0.538 | 0.681 | 0.747 | 0.757 | 0.666 | 0.464 | 0.347 | 0.338 | 0.321 | 0.274 |
| A549 | 1.02 | 1.07 | 0.921 | 0.877 | 0.992 | 0.97 | 0.731 | 0.517 | 0.437 |  |  |  |  |  |  |  |  |
| EMC-BAC-2 | 0.95 | 0.959 | 0.926 | 0.871 | 1.21 | 1.04 | 0.727 | 0.555 | 0.565 | 0.378 | 0.364 | 0.26 | 0.245 | 1.23 | 0.945 | 0.926 | 0.656 |
| ChaGo-K-1 | 1.02 | 1.14 | 0.968 | 0.866 | 1.04 | 1.02 | 0.893 | 0.783 | 0.815 | 0.586 | 0.626 | 0.411 | 0.314 | 0.663 | 0.63 | 0.502 | 0.499 |
| NCI-H2023 | 0.972 | 0.946 | 0.757 | 0.605 | 1.04 | 0.831 | 0.55 | 0.262 | 0.18 | 0.385 | 0.33 | 0.151 | 0.0847 | 0.936 | 0.753 | 0.286 | 0.103 |
| NCI-H1648 | 0.873 | 1.06 | 1.06 | 1.05 | 0.783 | 0.906 | 0.39 |  | 0.318 | 0.256 | 0.248 | 0.275 | 0.266 |  |  |  |  |
| NCI-H1299 | 1.02 | 1.02 | 1.04 | 1.01 | 1.06 | 1.05 | 1.06 | 0.773 | 0.991 |  |  |  |  |  |  |  |  |
| HCC-366 | 1.02 | 1.02 | 0.978 | 0.98 | 0.986 | 1.02 | 0.851 | 0.159 | 0.448 | 0.955 | 0.822 | 0.432 | 0.104 |  |  |  |  |
| Calu-6 | 1.02 | 1.06 | 1.01 | 0.962 | 1.05 | 1.04 | 1.01 | 0.907 | 0.792 |  |  |  |  |  |  |  |  |
